The source of these data is patent US6660759B1, “4.5-diaryloxazole compounds with prostaglandin I2 (PGI2) agonistic activity” (Fujisawa Pharmaceutical Co. Ltd., priority 1999, dated 2003).

The subject of this experiment is Human platelet aggregation induced by ADP (platelet rich plasma). Kind of experiment: Inhibition of human platelet aggregation induced by ADP. It is filed as cell-based. Particulars: human PRP; aggregation induced by ADP at final concentration of 2.5 μM; 37° C. As for the experimental part:
Inhibition of Human Platelet Aggregation Induced by ADP
Human blood was obtained from healthy volunteers and mixed with 1/10 volume of 3.8% sodium citrate, pH 7.4. The citrate blood was centrifuged at 150×g for 10 minutes and the platelet rich plasma (PRP) was removed. The remaining blood was centrifuged for a further 10 minutes at 1500×g to prepare the platelet poor plasma (PPP), which was used as a reference for platelet aggregation. Aggregation studies were carried out using HEMATRACER 801 (NBS, Japan), a 8 channel aggregometer. The test compound solution (25 μl) and the PRP (225 μl) were mixed and stirred at 1000 rpm at 37° C. for 2 minutes. Aggregation was induced by ADP solution at the final concentration of 2.5 μM.

As a reminder, the IC50 is the midpoint of a concentration-inhibition curve. Take `CCOC(=O)COc1cccc(CN2C[C@H](O)C[C@@H]2c2nc(-c3ccccc3)c(-c3ccccc3)o2)c1` [(1)]: the IC50 is less than 0.1 µM.
